Experimental findings from paper PMC8037310, “Thrombin-Derived Peptides Potentiate the Activity of Gram-Positive-Specific Antibiotics against Gram-Negative Bacteria” (Molecules, 2021) are described below.

Common to all, as to type: cell-based, Escherichia coli
In experiment [1] the test system is E. coli EQASmcr-3 (EQAS 2017 2013-SQ352). The following applies: for MICpeptide: peptide alone; for MICpeptide / MSCpeptide / MSCrif: E. coli EQASmcr-3; for MSCpeptide: peptide concentration in the combination with rifampicin giving the lowest FICi; for MSCrif: rifampicin concentration in the combination giving the lowest FICi.
The next experiment relates to E. coli ATCC25922. The following applies: for FICi: ATCC25922, 20 h; for MICpeptide: peptide alone; for MICpeptide / MSCpeptide / MSCrif: E. coli ATCC25922; for MSCpeptide: peptide concentration in the combination with rifampicin giving the lowest FICi; for MSCrif: rifampicin concentration in the combination giving the lowest FICi. The method, boiled down: (§1)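 Checkerboard of peptide serial dilutions against rifampicin concentrations in triplicate, in LB with 1.0 × 10^6 CFU/mL final inoculum after mixing the 2.0 × 10^6 CFU/mL stock 1:1, 20 h at 37 °C shaking. OD600 read; FICi = MSCa/MICa + MSCb/MICb, ≤0.5 taken as synergy.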

Another experiment deals with E. coli mcr-1. The settings on record: for MICpeptide: peptide alone; for MICpeptide / MSCpeptide / MSCrif: E. coli mcr-1; for MSCpeptide: peptide concentration in the combination with rifampicin giving the lowest FICi; for MSCrif: rifampicin concentration in the combination giving the lowest FICi; for FICi: with rifampicin vs E. coli mcr-1. The essentials: as §1
Experiment [2] deals with E. coli BW25113. Description: microbe, parasite or virus in culture. The following applies: for MSCnovo: novobiocin concentration in the combination giving the lowest FICi; for MSCnovo / MSCpeptide: E. coli BW25113; for MICpeptide: synergist alone, E. coli BW25113, from checkerboard with novobiocin; for MSCpeptide: synergist concentration in the combination with novobiocin giving the lowest FICi. On the procedure:
All peptides were screened for antimicrobial activity against E. coli BW25113, E. coli ATCC25922, and E. coli W3110. A select group of the peptides was further tested against E. coli mcr-1, E. coli EQASmcr-1 (EQAS 2016 412016126), E. coli EQASmcr-2 (EQAS 2016 KP37), E. coli EQASmcr-3 (EQAS 2017 2013-SQ352), K. pneumoniae ATCC13883, P. aeruginosa ATCC27853, and A. baumannii ATCC17978. The antimicrobial assay was performed according to CLSI guidelines. Bacteria were plated out directly from their glycerol stocks on blood agar plates, incubated overnight at 37 °C, and then kept in the fridge. The blood agar plates were only used for 2 weeks and then replaced.
(§2) One colony from a blood agar plates was inoculated in Lysogeny Broth (LB) at 37 °C until a 0.5 optical density at 600 nm (OD600) was reached (compared to the sterility control of LB). The bacterial suspension was diluted in fresh LB to 2.0 × 10^6 CFU/mL. The serial dilutions were prepared in polypropylene microtiter plates: a stock of the test compounds was prepared with a 2x final concentration in LB. Moreover, 100 µL of the stock was added to the wells of the top row of which 50 µL was used for the serial dilution. The bottom row of each plate was used as the positive (50 µL of LB) and negative controls (100 µL of LB) (6 wells each). Furthermore, 50 µL of the 2.0 × 10^6 CFU/mL bacterial stock was added to each well except for the negative controls, adding up to a total volume of 100 µL per well. The plates were sealed with a breathable seal and incubated for 20 h at 37 °C and 600 rpm.
Two 96-well plates were required per compound. A serial dilution of the compound was performed on two plates from row A–G using with LB as medium. Row H was filled with 25 µL medium. On a separate plate a negative control (8 wells, 100 μL medium) was prepared. For all concentrations of antibiotic a specific stock was prepared. 25 µL medium was added to the 0 µg/mL antibiotic columns (plate I, column 1–3). Of each antibiotic stock 25 µL was added to three columns to obtain triplicates for every condition. Both plates contained 50 µL in each well to which 50 µL bacterial stock was added (see the protocol of the MIC assays) and the plates were sealed. After incubation for 20 h at 37 °C while shaking, the breathable seals were removed and the density of the bacterial suspensions measured at 600 nm (OD600) using a Tecan Spark plate reader. The OD600 values were transformed to a 2D gradient with the negative control as minimum and the positive control (wells G1, G2, and G3) as maximum in excel. The FICi was calculated using Equation (1) with a FICi ≤ 0.5 indicating synergy. FICi = (MSCa/MICa) + (MSCb/MICb),(1)
Calculation of the FICi: MSCa = concentration of the […] in combination with the antibiotic that results in the lowest FICi. MICa = MIC of the antibiotic without synergist (row G). MSCb = concentration of the synergist in combination with the antibiotic that results in the lowest FICi. MICb = MIC of the synergist itself (Column 1–3, plate I).

In experiment [3] the test system is E. coli BW25113. The experiment in a line: LPS competition assay. The following applies: E. coli BW25113, LB, 20 h 37 °C, visual read-out. On the procedure:
as §2
The same protocol as the MIC assay was used to prepare the serial dilution of the compounds in 96-wells plates in duplicate resulting in two identical plates. A serial dilution of colistin was taken along as a control. The inoculation and preparation of the bacteria stock was performed as described for the MIC assay. The stock of bacteria was then split into two stocks. […] The normal bacteria stock was added to the remaining plate as described in the MIC assay.

[4] abbreviates: EQASmcr-3 (EQAS 2017 2013-SQ352, 20 h).

In brackets after ≈: the same amount, converted by molar mass. Where two headings read alike, the source gives them in different places. Peptide text beside a SMILES is read from it.

`CC[C@H](C)[C@H](NC(=O)[C@H](Cc1c[nH]c2ccccc12)NC(=O)[C@H](CCCCN)NC(=O)[C@H](CCCCN)NC(=O)[C@H](CC(C)C)NC(=O)[C@H](CCCNC(=N)N)NC(=O)[C@H](Cc1ccccc1)NC(=O)[C@@H](N)C(C)C)C(=O)N[C@@H](CCC(N)=O)C(=O)N[C@@H](CCCCN)C(=O)N[C@H](C(=O)N[C@@H](C)C(N)=O)C(C)C` [peptide 19] (H-VFRLKKWIQKVA-NH2): the MICpeptide is more than 200 µg/mL in experiment [1], more than 200 µg/mL with E. coli ATCC25922, more than 200 µg/mL in the experiment with E. coli mcr-1 and 200 µg/mL in the experiment with E. coli BW25113 [2]. The MSCpeptide in experiment [1] came out at 6.25 µg/mL; with E. coli ATCC25922 it was 6.25 µg/mL; with E. coli mcr-1, 25 µg/mL; in the experiment with E. coli BW25113 [2], 6.25 µg/mL. The figures for the MSCrif (in experiment [1]; in the experiment on E. coli ATCC25922; with E. coli mcr-1) were 0.125 µg/mL, 0.063 µg/mL and 0.75 µg/mL, respectively. For the same compound, the FICi in the experiment on E. coli ATCC25922 was determined as 0.0313; with E. coli BW25113 [2] (BW25113, 20 h), 0.0390. Besides, the MSCnovo in the experiment on E. coli BW25113 [2] was 3.125 µg/mL.
Turning to `CC[C@H](C)[C@H](NC(=O)[C@@H](NC(=O)[C@H](CCCCN)NC(=O)[C@H](CCC(N)=O)NC(=O)[C@@H](NC(=O)[C@H](C)NC(=O)[C@H](CCCCN)NC(=O)[C@H](CCCCN)NC(=O)[C@H](CC(C)C)NC(=O)[C@H](CCCNC(=N)N)NC(=O)[C@H](Cc1ccccc1)NC(=O)[C@@H](N)C(C)C)[C@@H](C)CC)C(C)C)C(N)=O` [peptide 14] (H-VFRLKKAIQKVI-NH2), the FICi in experiment [1] (setting [4]) came to 0.0469; in the experiment with E. coli ATCC25922 it was 0.0313; in the experiment with E. coli mcr-1, 0.1250; in the experiment with E. coli BW25113 [2] (BW25113, 20 h) it was 0.0313. The MICpeptide (in experiment [1]; in the experiment on E. coli ATCC25922; with E. coli mcr-1; in the experiment with E. coli BW25113 [2]) was more than 200 µg/mL in each case. Further, the MSCpeptide in experiment [1] turned out to be 12.5 µg/mL; in the experiment with E. coli ATCC25922, 6.25 µg/mL; in the experiment on E. coli mcr-1, 25 µg/mL; in the experiment with E. coli BW25113 [2], 6.25 µg/mL. Also, the MSCrif in experiment [1] turned out to be 0.125 µg/mL; with E. coli ATCC25922, 0.063 µg/mL; with E. coli mcr-1, 0.75 µg/mL. Also, the MSCnovo with E. coli BW25113 [2] is 6.25 µg/mL.
Turning to `CC[C@H](C)[C@H](NC(=O)[C@@H](NC(=O)[C@H](CCCCN)NC(=O)[C@H](CCC(N)=O)NC(=O)[C@@H](NC(=O)[C@H](Cc1c[nH]c2ccccc12)NC(=O)[C@H](CCCCN)NC(=O)[C@H](CCCCN)NC(=O)[C@H](CC(C)C)NC(=O)[C@H](C)NC(=O)[C@H](Cc1ccccc1)NC(=O)[C@@H](N)C(C)C)[C@@H](C)CC)C(C)C)C(N)=O` [peptide 10] (H-VFALKKWIQKVI-NH2), the MICpeptide in experiment [1] is 200 µg/mL; in the experiment with E. coli ATCC25922, more than 200 µg/mL; in the experiment on E. coli mcr-1, more than 200 µg/mL; in the experiment with E. coli BW25113 [2] it was 100 µg/mL. Besides, the MSCpeptide in experiment [1] came out at 12.5 µg/mL; with E. coli ATCC25922, 6.25 µg/mL; with E. coli mcr-1 it was 25 µg/mL; in the experiment with E. coli BW25113 [2], 6.25 µg/mL. Also, the results for the MSCrif (in experiment [1]; in the experiment with E. coli ATCC25922; with E. coli mcr-1) were 0.125 µg/mL, 0.063 µg/mL and 0.188 µg/mL, respectively. For the same compound, the FICi in experiment [1] (with rifampicin vs E. coli EQASmcr-3) was found to be 0.0781; in the experiment on E. coli ATCC25922, 0.0313; in the experiment on E. coli mcr-1, 0.0781; in the experiment with E. coli BW25113 [2] (with novobiocin vs E. coli BW25113) it was 0.0781. Also, the MSCnovo in the experiment with E. coli BW25113 [2] was 6.25 µg/mL.
For the compound `CC[C@H](C)[C@H](NC(=O)[C@@H](NC(=O)[C@H](CCCCN)NC(=O)[C@H](CCC(N)=O)NC(=O)[C@@H](NC(=O)[C@H](Cc1c[nH]c2ccccc12)NC(=O)[C@H](CCCCN)NC(=O)[C@H](CCCCN)NC(=O)[C@H](CC(C)C)NC(=O)[C@H](CCCNC(=N)N)NC(=O)[C@H](Cc1ccccc1)NC(=O)[C@@H](N)C(C)C)[C@@H](C)CC)C(C)C)C(N)=O` [peptide 6] (H-VFRLKKWIQKVI-NH2), in the experiment on E. coli BW25113 [3] (in the presence of 1 mg/mL LPS), the “MIC + 1.0 mg/ml LPS” value was 200 µg/mL. The MIC (as a rule, the lowest concentration that inhibits growth of the organism) in the experiment on E. coli BW25113 [3] (without LPS) was determined as 12.5 µg/mL (≈ 8.03 µM). Moreover, the FICi in experiment [1] (setting [4]) was determined as 0.0781; with E. coli ATCC25922 it was 0.0469; with E. coli mcr-1, 0.1406; with E. coli BW25113 [2] (BW25113, 20 h) it was 0.1875. The MICpeptide turned out to be 50 µg/mL in experiment [1], 200 µg/mL in the experiment on E. coli ATCC25922, 100 µg/mL in the experiment on E. coli mcr-1 and 12.5 µg/mL in the experiment with E. coli BW25113 [2]. The MSCpeptide was found to be 3.125 µg/mL in experiment [1], 6.25 µg/mL in the experiment with E. coli ATCC25922, 12.5 µg/mL in the experiment on E. coli mcr-1 and 1.563 µg/mL in the experiment on E. coli BW25113 [2]. In addition, the MSCrif in experiment [1] was determined as 0.125 µg/mL; in the experiment with E. coli ATCC25922 it was 0.063 µg/mL; with E. coli mcr-1, 0.188 µg/mL. For the same compound, in the experiment with E. coli BW25113 [2], the MSCnovo was found to be 25 µg/mL.
